Values after ≈ are worked out from the molar mass of the structure shown. Like-named read-outs stand apart in the source and are kept apart here.
Experiments:
brain homogenate binding = assay type: in vitro ADME, rat; conditions: fraction unbound
[1] = tested on: Adrenergic alpha 1 (non-selective); assay: Eurofins radioligand binding panel; set-up: species or system rat; conditions: antagonist radioligand
Description: (§1) Table S1. Eurofins Lead Profiling Screen Data
(§2) This is a radioligand binding panel of 80 targets including GPCRs, ion channels, transporters and nuclear hormones. Biochemical assay results are presented as the percent inhibition of specific […]
(§3) Results showing an inhibition or stimulation higher than 50% are considered to represent significant effect and are highlighted […]
(§4) Target / Protein Species % Inhibition at 10 […]

[2] = tested on: Adrenergic alpha 2 (non-selective); assay: Eurofins radioligand binding panel; set-up: species or system rat; conditions: antagonist radioligand
Description: as §1, §2, §3, §4

BB (non-selective) = assay: Eurofins radioligand binding panel; set-up: species or system rat; conditions: agonist radioligand
Description: as §1, §2, §3, §4

PDGF = assay: Eurofins radioligand binding panel; set-up: species or system mouse; conditions: agonist radioligand
Description: as §1, §2
(§5) Results showing an inhibition or stimulation higher than 50% are considered to represent significant effect and are highlighted

sst (non-selective) = assay: Eurofins radioligand binding panel; set-up: species or system mouse; conditions: agonist radioligand
Description: as §1, §2, §5

[3] = solubility (kinetic, FaSSIF, FaSSGF); assay type: physicochemical
Procedure: Over the course of the mGlu1 PAM program, 19d became an assay standard and was assayed multiple times, affording refined potency values.[20]

5-HT3 = target: T1, 5-HT3 (Homo sapiens, UniProt P46098); assay: Eurofins radioligand binding panel; conditions: antagonist radioligand
T1 construct: Eurofins
T1 sequence (P46098 24-478): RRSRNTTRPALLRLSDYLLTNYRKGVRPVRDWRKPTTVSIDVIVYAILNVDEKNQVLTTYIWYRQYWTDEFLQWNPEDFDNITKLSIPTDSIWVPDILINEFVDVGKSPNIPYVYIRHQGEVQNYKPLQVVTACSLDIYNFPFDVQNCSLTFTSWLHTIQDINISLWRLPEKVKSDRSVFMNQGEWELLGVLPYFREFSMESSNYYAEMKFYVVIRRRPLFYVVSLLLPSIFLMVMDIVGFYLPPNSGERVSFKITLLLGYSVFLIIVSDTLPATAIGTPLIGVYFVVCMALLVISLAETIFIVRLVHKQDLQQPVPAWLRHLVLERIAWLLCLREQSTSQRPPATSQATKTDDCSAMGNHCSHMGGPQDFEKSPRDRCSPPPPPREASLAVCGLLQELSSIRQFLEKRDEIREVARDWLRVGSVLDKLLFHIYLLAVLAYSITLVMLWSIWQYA
Description: as §1, §2, §5

NOP (ORL1) = target: T2, NOP (ORL1) (Homo sapiens, UniProt P41146); assay: Eurofins radioligand binding panel; conditions: agonist radioligand
T2 construct: Eurofins
Description: as §1, §2, §5

V1a = target: T3, V1a (Homo sapiens, UniProt P37288); assay: Eurofins radioligand binding panel; conditions: agonist radioligand
T3 construct: Eurofins
Description: as §1, §2, §5

NK1 = target: T4, NK1 (Homo sapiens, UniProt P25103); assay: Eurofins radioligand binding panel; conditions: agonist radioligand
T4 construct: Eurofins
Description: as §1, §2, §5

[4] = target: T5, norepinephrine transporter (Homo sapiens, UniProt P23975); assay: Eurofins radioligand binding panel; conditions: antagonist radioligand
T5 construct: Eurofins
Description: as §1, §2, §5

mu (MOP) = target: T6, mu (MOP) (Homo sapiens, UniProt P35372); assay: Eurofins radioligand binding panel; conditions: agonist radioligand
T6 construct: Eurofins
T6 sequence (P35372 whole entry): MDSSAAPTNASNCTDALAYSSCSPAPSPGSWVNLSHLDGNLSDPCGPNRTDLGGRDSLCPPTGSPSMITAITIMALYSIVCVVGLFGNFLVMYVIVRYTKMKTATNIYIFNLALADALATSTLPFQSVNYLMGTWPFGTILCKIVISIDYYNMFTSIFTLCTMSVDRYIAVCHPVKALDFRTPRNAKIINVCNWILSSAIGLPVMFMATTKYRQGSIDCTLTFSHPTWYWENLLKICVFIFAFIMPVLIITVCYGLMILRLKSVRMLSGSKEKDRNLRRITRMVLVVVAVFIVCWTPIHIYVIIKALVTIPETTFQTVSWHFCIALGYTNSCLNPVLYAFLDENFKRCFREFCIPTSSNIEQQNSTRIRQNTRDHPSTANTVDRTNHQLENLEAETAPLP
Description: as §1, §2, §5

GAL2 = target: T7, GAL2 (Homo sapiens, UniProt O43603); assay: Eurofins radioligand binding panel; conditions: agonist radioligand
T7 construct: Eurofins (panel run as a service)
T7 sequence (O43603 whole entry): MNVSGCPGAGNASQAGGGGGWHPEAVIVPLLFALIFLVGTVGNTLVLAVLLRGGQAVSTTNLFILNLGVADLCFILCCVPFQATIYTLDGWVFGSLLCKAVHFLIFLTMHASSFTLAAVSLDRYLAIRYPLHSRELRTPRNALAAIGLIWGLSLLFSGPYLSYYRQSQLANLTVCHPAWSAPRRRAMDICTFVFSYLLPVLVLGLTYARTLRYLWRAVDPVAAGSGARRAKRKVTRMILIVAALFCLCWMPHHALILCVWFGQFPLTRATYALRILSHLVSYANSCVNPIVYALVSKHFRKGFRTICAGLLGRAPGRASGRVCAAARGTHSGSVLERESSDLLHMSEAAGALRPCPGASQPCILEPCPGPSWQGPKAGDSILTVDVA
Description: as §1, §2, §5

dopamine transporter = target: T8, dopamine transporter (Homo sapiens, UniProt Q01959); assay: Eurofins radioligand binding panel; conditions: antagonist radioligand
T8 construct: Eurofins
Description: as §1, §2, §5

GAL1 = target: T9, GAL1 (Homo sapiens, UniProt P47211); assay: Eurofins radioligand binding panel; conditions: agonist radioligand
T9 construct: Eurofins (panel run as a service)
Description: as §1, §2, §5

EP2 = target: T10, EP2 (Homo sapiens, UniProt P43116); assay: Eurofins radioligand binding panel; conditions: agonist radioligand
T10 construct: Eurofins
Description: as §1, §2, §5

5-HT transporter = target: T11, 5-HT transporter (Homo sapiens, UniProt P31645); assay: Eurofins radioligand binding panel; conditions: antagonist radioligand
T11 construct: Eurofins
T11 sequence (P31645 whole entry): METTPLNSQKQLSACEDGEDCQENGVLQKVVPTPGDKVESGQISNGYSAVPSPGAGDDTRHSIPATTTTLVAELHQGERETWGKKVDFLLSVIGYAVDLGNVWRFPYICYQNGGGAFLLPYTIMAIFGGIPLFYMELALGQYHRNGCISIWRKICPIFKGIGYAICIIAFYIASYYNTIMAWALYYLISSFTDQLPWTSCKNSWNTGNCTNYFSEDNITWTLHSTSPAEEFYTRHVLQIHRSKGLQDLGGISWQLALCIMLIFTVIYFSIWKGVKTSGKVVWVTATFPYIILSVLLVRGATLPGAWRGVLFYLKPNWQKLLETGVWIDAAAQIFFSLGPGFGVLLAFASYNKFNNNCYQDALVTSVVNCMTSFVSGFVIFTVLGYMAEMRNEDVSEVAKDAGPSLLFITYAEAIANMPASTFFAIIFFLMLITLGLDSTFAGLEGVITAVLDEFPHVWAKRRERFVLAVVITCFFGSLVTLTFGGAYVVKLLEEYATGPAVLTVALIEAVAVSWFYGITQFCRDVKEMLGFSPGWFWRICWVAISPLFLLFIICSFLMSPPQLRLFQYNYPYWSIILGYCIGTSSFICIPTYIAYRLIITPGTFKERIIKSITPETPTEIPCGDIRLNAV
Description: as §1, §2, §5

D2S = target: T12, D2S (Homo sapiens, UniProt P14416); assay: Eurofins radioligand binding panel; conditions: antagonist radioligand
T12 construct: Eurofins (panel run as a service)
T12 sequence (P14416 1-414 isoform P14416-2): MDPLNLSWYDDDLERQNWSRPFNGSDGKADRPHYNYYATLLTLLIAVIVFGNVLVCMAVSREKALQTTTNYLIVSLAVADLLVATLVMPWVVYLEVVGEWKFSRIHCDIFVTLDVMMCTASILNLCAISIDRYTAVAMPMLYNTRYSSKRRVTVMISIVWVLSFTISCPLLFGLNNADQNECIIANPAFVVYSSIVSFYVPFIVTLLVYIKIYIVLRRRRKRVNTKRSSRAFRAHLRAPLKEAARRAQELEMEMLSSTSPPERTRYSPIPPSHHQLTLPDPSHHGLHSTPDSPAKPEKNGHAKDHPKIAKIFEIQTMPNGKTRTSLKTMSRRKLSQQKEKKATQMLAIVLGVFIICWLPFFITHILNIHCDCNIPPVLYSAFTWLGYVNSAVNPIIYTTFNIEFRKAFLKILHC
Description: as §1, §2, §5

M5 = target: T13, M5 (Homo sapiens, UniProt P08912); assay: Eurofins radioligand binding panel; conditions: antagonist radioligand
T13 construct: Eurofins
Description: as §1, §2, §5

NK3 = target: T14, NK3 (Homo sapiens, UniProt P29371); assay: Eurofins radioligand binding panel; conditions: antagonist radioligand
T14 construct: Eurofins
Description: as §1, §2, §5

IP (PGI2) = target: T15, IP (PGI2) (Homo sapiens, UniProt P43119); assay: Eurofins radioligand binding panel; conditions: agonist radioligand
T15 construct: Eurofins
T15 sequence (P43119 whole entry): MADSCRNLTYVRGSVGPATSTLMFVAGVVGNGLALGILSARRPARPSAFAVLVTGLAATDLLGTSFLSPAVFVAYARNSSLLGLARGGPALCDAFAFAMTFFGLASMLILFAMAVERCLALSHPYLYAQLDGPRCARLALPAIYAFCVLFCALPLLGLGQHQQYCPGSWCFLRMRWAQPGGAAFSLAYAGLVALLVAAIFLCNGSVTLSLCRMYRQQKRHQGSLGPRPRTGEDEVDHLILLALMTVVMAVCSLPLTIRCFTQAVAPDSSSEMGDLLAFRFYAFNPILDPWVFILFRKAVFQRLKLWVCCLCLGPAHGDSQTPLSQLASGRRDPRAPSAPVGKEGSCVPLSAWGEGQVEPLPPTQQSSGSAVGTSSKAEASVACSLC
Description: as §1, §2, §5

delta (DOP) = target: T16, delta (DOP) (Homo sapiens, UniProt P41143); assay: Eurofins radioligand binding panel; conditions: agonist radioligand
T16 construct: Eurofins
Description: as §1, §2, §5

5-HT1B = target: T17, 5-HT1B (Homo sapiens, UniProt P28222); assay: Eurofins radioligand binding panel; conditions: antagonist radioligand
T17 construct: Eurofins
Description: as §1, §2, §5

CXCR2 (IL-8B) = target: T18, CXCR2 (IL-8B) (Homo sapiens, UniProt P25025); assay: Eurofins radioligand binding panel; conditions: agonist radioligand
T18 construct: Eurofins (panel run as a service)
Description: as §1, §2, §5

NK2 = target: T19, NK2 (Homo sapiens, UniProt P21452); assay: Eurofins radioligand binding panel; conditions: agonist radioligand
T19 construct: Eurofins
Description: as §1, §2, §5

GR = target: T20, GR (Homo sapiens, UniProt P04150); assay: Eurofins radioligand binding panel; conditions: agonist radioligand
T20 construct: Eurofins
T20 sequence (P04150 whole entry): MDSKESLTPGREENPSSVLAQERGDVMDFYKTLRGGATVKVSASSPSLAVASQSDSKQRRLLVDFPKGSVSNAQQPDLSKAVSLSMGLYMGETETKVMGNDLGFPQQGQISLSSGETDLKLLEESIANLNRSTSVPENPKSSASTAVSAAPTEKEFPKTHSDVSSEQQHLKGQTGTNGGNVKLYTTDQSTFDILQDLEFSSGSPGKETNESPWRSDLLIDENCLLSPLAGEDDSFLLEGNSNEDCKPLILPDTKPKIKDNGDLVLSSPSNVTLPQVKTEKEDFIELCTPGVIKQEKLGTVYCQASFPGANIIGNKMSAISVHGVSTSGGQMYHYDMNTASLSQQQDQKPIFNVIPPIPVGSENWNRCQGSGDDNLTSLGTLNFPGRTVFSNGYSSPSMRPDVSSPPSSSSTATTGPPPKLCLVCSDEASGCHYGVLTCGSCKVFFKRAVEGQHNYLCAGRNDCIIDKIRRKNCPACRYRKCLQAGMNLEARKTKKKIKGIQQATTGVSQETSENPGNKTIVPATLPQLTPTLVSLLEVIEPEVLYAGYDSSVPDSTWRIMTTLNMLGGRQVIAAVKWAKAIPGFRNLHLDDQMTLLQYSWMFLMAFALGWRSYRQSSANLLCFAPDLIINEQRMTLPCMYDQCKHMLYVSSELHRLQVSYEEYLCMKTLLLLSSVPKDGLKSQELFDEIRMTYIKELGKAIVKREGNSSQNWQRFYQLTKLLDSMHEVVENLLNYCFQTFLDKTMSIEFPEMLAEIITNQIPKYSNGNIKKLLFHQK
Description: as §1, §2, §5

M3 = target: T21, M3 (Homo sapiens, UniProt P20309); assay: Eurofins radioligand binding panel; conditions: antagonist radioligand
T21 construct: Eurofins
T21 sequence (P20309 whole entry): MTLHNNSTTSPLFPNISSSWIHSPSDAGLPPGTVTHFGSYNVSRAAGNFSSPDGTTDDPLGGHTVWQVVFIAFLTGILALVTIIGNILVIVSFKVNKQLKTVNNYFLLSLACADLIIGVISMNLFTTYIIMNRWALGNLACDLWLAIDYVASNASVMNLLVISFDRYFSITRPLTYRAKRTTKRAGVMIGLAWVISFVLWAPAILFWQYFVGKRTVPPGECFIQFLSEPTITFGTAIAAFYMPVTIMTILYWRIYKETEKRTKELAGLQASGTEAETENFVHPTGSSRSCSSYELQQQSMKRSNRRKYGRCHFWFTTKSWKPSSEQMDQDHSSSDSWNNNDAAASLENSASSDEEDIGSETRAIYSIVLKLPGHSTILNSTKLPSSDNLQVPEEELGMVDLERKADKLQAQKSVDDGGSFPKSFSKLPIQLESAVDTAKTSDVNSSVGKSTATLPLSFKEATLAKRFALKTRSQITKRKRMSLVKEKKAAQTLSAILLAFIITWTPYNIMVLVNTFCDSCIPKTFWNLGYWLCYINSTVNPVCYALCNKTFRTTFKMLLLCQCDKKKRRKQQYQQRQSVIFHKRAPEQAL
Description: as §1, §2, §5

5-HT2C = target: T22, 5-HT2C (Homo sapiens, UniProt P28335); assay: Eurofins radioligand binding panel; conditions: antagonist radioligand
T22 construct: Eurofins
T22 sequence (P28335 33-458): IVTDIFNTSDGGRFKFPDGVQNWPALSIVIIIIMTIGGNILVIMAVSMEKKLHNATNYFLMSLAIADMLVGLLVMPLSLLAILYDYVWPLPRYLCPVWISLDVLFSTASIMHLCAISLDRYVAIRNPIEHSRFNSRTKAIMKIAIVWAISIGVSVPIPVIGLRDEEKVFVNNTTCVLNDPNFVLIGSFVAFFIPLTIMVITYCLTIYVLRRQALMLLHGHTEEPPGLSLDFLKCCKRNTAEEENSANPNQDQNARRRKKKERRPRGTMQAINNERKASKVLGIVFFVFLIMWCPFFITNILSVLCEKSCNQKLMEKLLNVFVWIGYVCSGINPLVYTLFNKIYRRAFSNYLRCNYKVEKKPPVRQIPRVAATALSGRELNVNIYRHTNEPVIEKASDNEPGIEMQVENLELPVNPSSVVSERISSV
Description: as §1, §2, §5

D5 = target: T23, D5 (Homo sapiens, UniProt P21918); assay: Eurofins radioligand binding panel; conditions: antagonist radioligand
T23 construct: Eurofins (panel run as a service)
Description: as §1, §2, §5

M2 = target: T24, M2 (Homo sapiens, UniProt P08172); assay: Eurofins radioligand binding panel; conditions: antagonist radioligand
T24 construct: Eurofins
Description: as §1, §2, §5

VPAC1 (VIP1) = target: T25, VPAC1 (VIP1) (Homo sapiens, UniProt P32241); assay: Eurofins radioligand binding panel; conditions: agonist radioligand
T25 construct: Eurofins
Description: as §1, §2, §5

M1 = target: T26, M1 (Homo sapiens, UniProt P11229); assay: Eurofins radioligand binding panel; conditions: antagonist radioligand
T26 construct: Eurofins
T26 sequence (P11229 whole entry): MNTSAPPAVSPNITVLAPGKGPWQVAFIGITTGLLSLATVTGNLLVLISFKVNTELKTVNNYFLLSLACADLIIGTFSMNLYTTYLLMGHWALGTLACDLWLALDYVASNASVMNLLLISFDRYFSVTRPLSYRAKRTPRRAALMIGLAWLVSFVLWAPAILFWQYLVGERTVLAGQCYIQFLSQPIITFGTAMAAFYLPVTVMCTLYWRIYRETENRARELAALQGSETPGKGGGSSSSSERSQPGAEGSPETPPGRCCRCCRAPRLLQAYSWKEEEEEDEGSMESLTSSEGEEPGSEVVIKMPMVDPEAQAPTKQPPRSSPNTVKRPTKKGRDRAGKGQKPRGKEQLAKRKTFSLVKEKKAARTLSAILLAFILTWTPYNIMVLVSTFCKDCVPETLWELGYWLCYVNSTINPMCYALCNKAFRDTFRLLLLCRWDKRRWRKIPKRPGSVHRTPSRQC
Description: as §1, §2, §5

kappa (KOP) = target: T27, kappa (KOP) (Homo sapiens, UniProt P41145); assay: Eurofins radioligand binding panel; conditions: agonist radioligand
T27 construct: Eurofins
Description: as §1, §2, §5

M4 = target: T28, M4 (Homo sapiens, UniProt P08173); assay: Eurofins radioligand binding panel; conditions: antagonist radioligand
T28 construct: Eurofins
Description: as §1, §2, §5

P2X = assay: Eurofins radioligand binding panel; conditions: agonist radioligand
Description: as §1, §2, §5

5-HT6 = target: T29, 5-HT6 (Homo sapiens, UniProt P50406); assay: Eurofins radioligand binding panel; conditions: agonist radioligand
T29 construct: Eurofins
Description: as §1, §2, §5

PAC1 (PACAP) = target: T30, PAC1 (PACAP) (Homo sapiens, UniProt P41586); assay: Eurofins radioligand binding panel; conditions: agonist radioligand
T30 construct: Eurofins
Description: as §1, §2, §5

5-HT5a = target: T31, 5-HT5a (Homo sapiens, UniProt P47898); assay: Eurofins radioligand binding panel; conditions: agonist radioligand
T31 construct: Eurofins
Description: as §1, §2, §5

H1 = target: T32, H1 (Homo sapiens, UniProt P35367); assay: Eurofins radioligand binding panel; conditions: antagonist radioligand
T32 construct: Eurofins (panel run as a service)
Description: as §1, §2, §5

MC4 = target: T33, MC4 (Homo sapiens, UniProt P32245); assay: Eurofins radioligand binding panel; conditions: agonist radioligand
T33 construct: Eurofins
Description: as §1, §2, §5

CCK2 (CCKB) = target: T34, CCK2 (CCKB) (Homo sapiens, UniProt P32239); assay: Eurofins radioligand binding panel; conditions: agonist radioligand
T34 construct: Eurofins (panel run as a service)
Description: as §1, §2, §3, §4
CCK2 (CCKB) (agonist radioligand) human -4

## Cn1nc(-c2ccnn2C)cc1CNC(=O)c1cc(-c2ccco2)ccc1Cl [Compound 19d, 2-Chloro-N-((1,2′-dimethyl-1H,2’H-[3,3′-bipyrazol]-5-yl)methyl)-5-(furan-2-yl)benzamide]
Brain homogenate binding
  rat fubrain: 0.034
[1]
  % Inhibition at 10 µM: 19%
[2]
  % Inhibition at 10 µM: 1%
BB (non-selective)
  % Inhibition at 10 µM: -20%
PDGF
  % Inhibition at 10 µM: -2%
Sst (non-selective)
  % Inhibition at 10 µM: -12%
[3]; FaSSGF, fassgf or other biorelevant, read-out: FaSSGF solubility
  solubility: 2.5 µM (≈ 0.99 µg/mL)
[3]; FaSSIF, read-out: FaSSIF solubility
  solubility: 2.5 µM (≈ 0.99 µg/mL)
[3]; pH 7.4, aqueous buffer, kinetic from dmso stock
  solubility kinetic: 4.1 µM (≈ 1.62 µg/mL)
5-HT3
  inhibition at 10 µM: 2%
NOP (ORL1)
  inhibition at 10 µM: -1%
V1a
  inhibition at 10 µM: 9%
NK1
  inhibition at 10 µM: 46%
[4]
  inhibition at 10 µM: 11%
Mu (MOP)
  inhibition at 10 µM: 14%
GAL2
  inhibition at 10 µM: -9%
Dopamine transporter
  inhibition at 10 µM: 37%
GAL1
  inhibition at 10 µM: -4%
EP2
  inhibition at 10 µM: 41%
5-HT transporter
  inhibition at 10 µM: 47%
D2S
  inhibition at 10 µM: 6%
M5
  inhibition at 10 µM: 3%
NK3
  inhibition at 10 µM: -8%
IP (PGI2)
  inhibition at 10 µM: -7%
Delta (DOP)
  inhibition at 10 µM: 8%
5-HT1B
  inhibition at 10 µM: 11%
CXCR2 (IL-8B)
  inhibition at 10 µM: 3%
NK2
  inhibition at 10 µM: 11%
GR
  inhibition at 10 µM: 0%
M3
  inhibition at 10 µM: 2%
5-HT2C
  inhibition at 10 µM: 3%
D5
  inhibition at 10 µM: -1%
M2
  inhibition at 10 µM: 18%
VPAC1 (VIP1)
  inhibition at 10 µM: -4%
M1
  inhibition at 10 µM: 14%
Kappa (KOP)
  inhibition at 10 µM: 11%
M4
  inhibition at 10 µM: 11%
P2X
  % Inhibition at 10 µM: -6%
5-HT6
  inhibition at 10 µM: -7%
PAC1 (PACAP)
  inhibition at 10 µM: -2%
5-HT5a
  inhibition at 10 µM: -2%
H1
  inhibition at 10 µM: 6%
MC4
  inhibition at 10 µM: 14%
CCK2 (CCKB)
  inhibition at 10 µM: -4%

Source: publication PMC11684029, “Discovery of VU6024578/BI02982816: An mGlu1 Positive Allosteric Modulator with Efficacy in Preclinical Antipsychotic and Cognition Models” (Journal of Medicinal Chemistry, 2024)
